This is an account of results in patent US20120121708A1 (National Taiwan University, priority 2010, published 2012).

Data set [1] in a line: dissolution rate analysis by dissolution tester (Weibull model). The class given is physicochemical. On the procedure:
The microparticle morphology and size are detected by the scanning electron microscopy (SEM). The particle size distribution (PSD) is analyzed by the image analysis software “Image J”. The crystal properties are analyzed by the X-Ray diffractometer. The changes in the crystal form are detected by the differential scanning calorimetry (DSC). […] The analyses of the dissolution rate are performed by the dissolution tester.

The conditions of data set [2]: background statement; cited from earlier work.

As for `CC(=O)Nc1nnc(S(N)(=O)=O)s1` [acetazolamide bulk drug, acetazolamide], the dissolution rate coefficient in data set [1] is 0.0626 min⁻¹. The “particle size of commercial acetazolamide drug” value in data set [2] is recorded as “about 20 μm”.
